Reference: patent US20180265515A1 (Genentech, Inc., priority 2015, published 2018)

What was measured:
[1] = biological target: T1, isolated recombinant JAK1 kinase domain (Homo sapiens, UniProt P23458); assay: JAK1 enzyme assay (Caliper LabChip, Ki); type: biochemical; conditions: recombinant JAK1 kinase domain, 25 μM ATP
T1 construct: The activity of the isolated recombinant JAK1 and JAK2 kinase domain was measured
Description: (§1) JAK Enzyme Assays were Carried Out as Follows:
(§2) The activity of the isolated recombinant JAK1 and JAK2 kinase domain was measured by monitoring phosphorylation of a peptide derived from JAK3 (Val-Ala-Leu-Val-Asp-Gly-Tyr-Phe-Arg-Leu-Thr-Thr, fluorescently labeled on the N-terminus with 5-carboxyfluorescein) using the Caliper LabChip® technology (Caliper Life Sciences, Hopkinton, Mass.). […] Reactions were incubated at 22° C. in 384-well polypropylene microtiter plates for 30 minutes and then stopped by addition of 25 μL of an EDTA containing solution (100 mM HEPES buffer (pH 7.2), 0.015% Brij-35, 150 mM EDTA), resulting in a final EDTA concentration of 50 mM. After termination of the kinase reaction, the proportion of phosphorylated product was determined as a fraction of total peptide substrate using the Caliper LabChip® 3000 according to the manufacturer's specifications. Ki values were then determined using the Morrison tight binding model (Morrison, J. F., Biochim. Biophys. Acta. 185:269-296 (1969); William, J. W. and Morrison, J. F., Meth. Enzymol., 63:437-467 (1979)) modified for ATP-competitive inhibition [Ki=Ki,app/(1+[ATP]/Km,app)].

[2] = biological target: T2, isolated recombinant JAK2 kinase domain (Homo sapiens, UniProt O60674); assay: JAK2 enzyme assay (Caliper LabChip, Ki); type: biochemical; conditions: 25 μM ATP
T2 construct: The activity of the isolated recombinant JAK1 and JAK2 kinase domain was measured
Description: as §1, §2

[3] = system: JAK1-dependent STAT6 phosphorylation downstream of IL-13 stimulation in BEAS-2B human bronchial epithelial cells; assay: JAK1 pathway assay in BEAS-2B cells (IL-13 stimulated STAT6 phosphorylation, MSD); type: cell-based; conditions: read-out: P-STAT6 BEAS2B + IL13 IC50
Description: JAK1 Pathway Assay in Cell Lines was Carried Out as Follows:
Inhibitor potency (EC50) was determined in cell-based assays designed to measure JAK1 dependent STAT phosphorylation. As noted above, inhibition of IL-4, IL-13, and IL-9 signaling by blocking the Jak/Stat signaling pathway can alleviate asthmatic symptoms in pre-clinical lung inflammation models (Mathew et al., 2001, J Exp Med 193(9): 1087-1096; Kudlacz et. al., 2008, Eur J. Pharmacol 582(1-3): 154-161).
In one assay approach, TF-1 human erythroleukemia cells obtained from the American Type Culture Collection (ATCC; Manassas, Va.) were used to measure JAK1-dependent STAT6 phosphorylation downstream of IL-13 stimulation. Prior to use in the assays, TF-1 cells were starved of GM-CSF overnight in OptiMEM medium (Life Technologies, Grand Island, N.Y.) supplemented with 0.5% charcoal/dextran stripped fetal bovine serum (FBS), 0.1 mM non-essential amino acids (NEAA), and 1 mM sodium pyruvate. The assays were run in 384-well plates in serum-free OptiMEM medium using 300,000 cells per well. In a second assay approach, BEAS-2B human bronchial epithelial cells obtained from ATCC were plated at 100,000 cells per well of a 96-well plate one day prior to the experiment. The BEAS-2B assay was run in complete growth medium (bronchial epithelial basal medium plus bulletkit; Lonza; Basel, Switzerland).
Test compounds were serially diluted 1:2 in DMSO and then diluted 1:50 in medium just before use. Diluted compounds were added to the cells, for a final DMSO concentration of 0.2%, and incubated for 30 min (for the TF-1 assay) or 1 hr (for the BEAS-2B assay) at 37° C. Then, cells were stimulated with human recombinant cytokine at their respective EC90 concentrations, as previously determined for each individual lot. Cells were stimulated with IL-13 (R&D Systems, Minneapolis, Minn.) for 15 min at 37° C. The TF-1 cell reactions were stopped by the direct addition of 10× lysis buffer (Cell Signaling Technologies, Danvers, Mass.), whereas the BEAS-2B cell incubations were halted by the removal of medium and addition of 1× lysis buffer. The resultant samples were frozen in the plates at −80° C. Compound mediated inhibition of STAT6 phosphorylation was measured in the cell lysates using MesoScale Discovery (MSD) technology (Gaithersburg, Md.). EC50 values were determined as the concentration of compound required for 50% inhibition of STAT phosphorylation relative to that measured for the DMSO control.

T1 sequence (P23458 875-1153 limits assumed): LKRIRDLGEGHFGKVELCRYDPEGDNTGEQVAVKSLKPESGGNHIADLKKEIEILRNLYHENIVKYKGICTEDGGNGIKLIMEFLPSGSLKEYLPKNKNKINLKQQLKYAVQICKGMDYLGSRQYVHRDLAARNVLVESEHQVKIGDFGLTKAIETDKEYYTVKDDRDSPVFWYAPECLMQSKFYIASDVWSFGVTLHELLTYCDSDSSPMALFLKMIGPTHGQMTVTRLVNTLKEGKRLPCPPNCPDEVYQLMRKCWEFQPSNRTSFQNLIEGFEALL
T2 sequence (O60674 849-1124 limits assumed): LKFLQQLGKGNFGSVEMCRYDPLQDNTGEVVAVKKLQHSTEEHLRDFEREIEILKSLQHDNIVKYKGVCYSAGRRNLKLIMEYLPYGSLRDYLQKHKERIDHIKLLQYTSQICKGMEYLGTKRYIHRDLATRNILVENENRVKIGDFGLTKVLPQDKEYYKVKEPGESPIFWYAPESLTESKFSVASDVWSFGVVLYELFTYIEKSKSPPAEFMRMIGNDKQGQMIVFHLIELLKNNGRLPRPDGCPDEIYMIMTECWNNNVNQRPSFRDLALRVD

Row | Compound | Ki [1] [nM] | Ki [2] [nM] | IC50 [3] [nM]
1 | CSc1ccc(OC(F)F)c(-c2nn(CC(=O)N3CCC(NCC(C)(F)F)CC3)cc2NC(=O)c2cnn3cccnc23)c1 [Example 19, N-[3-[2-(difluoromethoxy)-5-methylsulfanyl-phenyl]-1-[2-[4-(2,2-difluoropropylamino)-1-piperidyl]-2-oxo-ethyl]pyrazol-4-yl]pyrazolo[1,5-a]pyrimidine-3-carboxamide] | 0.24 | 0.39 | 7.4
2 | CSc1ccc(OC(F)F)c(-c2nn(CC(=O)N3CCC(NCC(C)(C)C#N)CC3)cc2NC(=O)c2cnn3cccnc23)c1 [Example 20, N-[1-[2-[4-[(2-cyano-2-methyl-propyl)amino]-1-piperidyl]-2-oxo-ethyl]-3-[2-(difluoromethoxy)-5-methylsulfanyl-phenyl]pyrazol-4-yl]pyrazolo[1,5-a]pyrimidine-3-carboxamide] | 0.2 | 0.33 | 11
3 | CSc1ccc(OC(F)F)c(-c2nn(CC(=O)N3CCN(CCCC#N)CC3)cc2NC(=O)c2cnn3cccnc23)c1 [Example 21, N-[1-[2-[4-(3-cyanopropyl)piperazin-1-yl]-2-oxo-ethyl]-3-[2-(difluoromethoxy)-5-methylsulfanyl-phenyl]pyrazol-4-yl]pyrazolo[1,5-a]pyrimidine-3-carboxamide] | 0.27 | 0.33 | 9.1
4 | CSc1ccc(OC(F)F)c(-c2nn(CC(=O)N3CCC(N(C)CC(=O)N4CCC4)CC3)cc2NC(=O)c2cnn3cccnc23)c1 [Example 22, N-[1-[2-[4-[[2-(azetidin-1-yl)-2-oxo-ethyl]-methyl-amino]-1-piperidyl]-2-oxo-ethyl]-3-[2-(difluoromethoxy)-5-methylsulfanyl-phenyl]pyrazol-4-yl]pyrazolo[1,5-a]pyrimidine-3-carboxamide] | 0.32 | 0.62 | 130
5 | CSc1ccc(OC(F)F)c(-c2nn(CC(=O)N3CCC(N4CCN(C)C(=O)C4)CC3)cc2NC(=O)c2cnn3cccnc23)c1 [Example 23, N-[3-[2-(difluoromethoxy)-5-methylsulfanyl-phenyl]-1-[2-[4-(4-methyl-3-oxo-piperazin-1-yl)-1-piperidyl]-2-oxo-ethyl]pyrazol-4-yl]pyrazolo[1,5-a]pyrimidine-3-carboxamide] | 0.24 | 0.31 | 61
6 | CSc1ccc(OC(F)F)c(-c2nn(CC(=O)N3CCC(N(C)CC(C)(F)F)CC3)cc2NC(=O)c2cnn3cccnc23)c1 [Example 24, N-[3-[2-(difluoromethoxy)-5-methylsulfanyl-phenyl]-1-[2-[4-[2,2-difluoropropyl(methyl)amino]-1-piperidyl]-2-oxo-ethyl]pyrazol-4-yl]pyrazolo[1,5-a]pyrimidine-3-carboxamide] | 0.22 | 0.32 | 4.9
7 | CSc1ccc(OC(F)F)c(-c2nn(CC(=O)N3CCC(CN4CCN(CC(=O)N(C)C)CC4)CC3)cc2NC(=O)c2cnn3cccnc23)c1 [Example 25, N-(3-(2-(difluoromethoxy)-5-(methylthio)phenyl)-1-(2-(4-((4-(2-(dimethylamino)-2-oxoethyl)piperazin-1-yl)methyl)piperidin-1-yl)-2-oxoethyl)-1H-pyrazol-4-yl)pyrazolo[1,5-a]pyrimidine-3-carboxamide] | 0.31 | 0.51 | 18
8 | CSc1ccc(OC(F)F)c(-c2nn(CC(=O)N3CCC(N(C)CC(C)(C)C#N)CC3)cc2NC(=O)c2cnn3cccnc23)c1 [Example 26, N-[1-[2-[4-[(2-cyano-2-methyl-propyl)-methyl-amino]-1-piperidyl]-2-oxo-ethyl]-3-[2-(difluoromethoxy)-5-methylsulfanyl-phenyl]pyrazol-4-yl]pyrazolo[1,5-a]pyrimidine-3-carboxamide] | 0.24 | 0.39 | 12
9 | CSc1ccc(OC(F)F)c(-c2nn(CC(=O)N3CCC(N4CCSCC4)CC3)cc2NC(=O)c2cnn3cccnc23)c1 [Example 27, N-[3-[2-(difluoromethoxy)-5-methylsulfanyl-phenyl]-1-[2-oxo-2-(4-thiomorpholino-1-piperidyl)ethyl]pyrazol-4-yl]pyrazolo[1,5-a]pyrimidine-3-carboxamide] | 0.23 | 0.32 | 5.1
10 | CNCCn1cc(NC(=O)c2cnn3cccnc23)c(-c2cc(SC)ccc2OC(F)F)n1 [Example 28, N-[3-[2-(difluoromethoxy)-5-methylsulfanyl-phenyl]-1-[2-(methylamino)ethyl]pyrazol-4-yl]pyrazolo[1,5-a]pyrimidine-3-carboxamide] | 0.22 | 0.26 | 3
11 | CSc1ccc(OC(F)F)c(-c2nn(CC(=O)N3CCC(N(C)CC(C)C#N)CC3)cc2NC(=O)c2cnn3cccnc23)c1 (stereo not drawn) [Example 29, N-[1-[2-[4-[2-cyanopropyl(methyl)amino]-1-piperidyl]-2-oxo-ethyl]-3-[2-(difluoromethoxy)-5-methylsulfanyl-phenyl]pyrazol-4-yl]pyrazolo[1,5-a]pyrimidine-3-carboxamide] | 0.26 | 0.37 | 9
12 | CSc1ccc(OC(F)F)c(-c2nn(CC(=O)N3CCC(NCC(C)C#N)CC3)cc2NC(=O)c2cnn3cccnc23)c1 (stereo not drawn) [Example 30, N-[1-[2-[4-(2-cyanopropylamino)-1-piperidyl]-2-oxo-ethyl]-3-[2-(difluoromethoxy)-5-methylsulfanyl-phenyl]pyrazol-4-yl]pyrazolo[1,5-a]pyrimidine-3-carboxamide] | 0.29 | 0.38 | 8.7
13 | CSc1ccc(OC(F)F)c(-c2nn(CC(=O)N3CCC(N4CCCC(C#N)C4)CC3)cc2NC(=O)c2cnn3cccnc23)c1 (stereo not drawn) [Example 31, N-[1-[2-[4-(3-cyano-1-piperidyl)-1-piperidyl]-2-oxo-ethyl]-3-[2-(difluoromethoxy)-5-methylsulfanyl-phenyl]pyrazol-4-yl]pyrazolo[1,5-a]pyrimidine-3-carboxamide] | 0.19 | 0.25 | 8.3
14 | CSc1ccc(OC(F)F)c(-c2nn(CC(=O)N3CCC(N4CCC(C#N)C4)CC3)cc2NC(=O)c2cnn3cccnc23)c1 (stereo not drawn) [Example 32, N-[1-[2-[4-(3-cyanopyrrolidin-1-yl)-1-piperidyl]-2-oxo-ethyl]-3-[2-(difluoromethoxy)-5-methylsulfanyl-phenyl]pyrazol-4-yl]pyrazolo[1,5-a]pyrimidine-3-carboxamide] | 0.23 | 0.33 | 11
15 | CSc1ccc(OC(F)F)c(-c2nn(CC(=O)N3CCN(CC4CCN(CC(=O)N(C)C)CC4)CC3)cc2NC(=O)c2cnn3cccnc23)c1 [Example 33, N-[3-[2-(difluoromethoxy)-5-methylsulfanyl-phenyl]-1-[2-[4-[[1-[2-(dimethylamino)-2-oxo-ethyl]-4-piperidyl]methyl]piperazin-1-yl]-2-oxo-ethyl]pyrazol-4-yl]pyrazolo[1,5-a]pyrimidine-3-carboxamide] | 0.38 | 0.73 | 35
16 | CSc1ccc(OC(F)F)c(-c2nn(CC(=O)N3CC4CCN(C)C4C3)cc2NC(=O)c2cnn3cccnc23)c1 (stereo not drawn) [Example 34, N-[3-[2-(difluoromethoxy)-5-methylsulfanyl-phenyl]-1-[2-(1-methyl-2,3,3a,4,6,6a-hexahydropyrrolo[2,3-c]pyrrol-5-yl)-2-oxo-ethyl]pyrazol-4-yl]pyrazolo[1,5-a]pyrimidine-3-carboxamide] | 0.28 | 0.3 | 5.3
